Data: ChEMBL document CHEMBL3091361, “Synthesis, structure elucidation and in vitro anticancer activities of novel derivatives of diethyl (2E)-2-[(2E)-(1-arylimidazolidin-2-ylidene)hydrazono]succinate and ethyl (4-oxo-8-aryl-4,6,7,8-tetrahydroimidazo[2,1-c][1,2,4]triazin-3-yl)acetate” (Bioorg Med Chem, 2013)

Legend:
[1] = Selectivity ratio for human T47D cells over human HSF cells after 72 hrs; assay type: ADME, cell-based; conditions: T47D cells versus HSF cells
[2] = Selectivity ratio for human HeLa cells over human HSF cells after 72 hrs; assay type: ADME, cell-based; conditions: HeLa cells versus HSF cells
[3] = Selectivity ratio for human HeLa cells over human HSF cells after 48 hrs; assay type: ADME, cell-based; conditions: HeLa cells versus HSF cells
[4] = Selectivity ratio for human HeLa cells over human HSF cells after 24 hrs; assay type: ADME, cell-based; conditions: HeLa cells versus HSF cells
[5] = Cytotoxicity against human HSF cells at 50 ug/ml by BrdU incorporation assay; assay type: cell-based; conditions: TDE = time-dependent effect
T47D [6] = experiment: Cytotoxicity against human T47D cells at 50 ug/ml after 72 hrs by BrdU incorporation assay relative to control; assay type: functional; conditions: read-out: GI
T47D [7] = experiment: Cytotoxicity against human T47D cells at 50 ug/ml after 48 hrs by BrdU incorporation assay relative to control; assay type: functional; conditions: read-out: GI
T47D [8] = experiment: Cytotoxicity against human T47D cells at 50 ug/ml after 24 hrs by BrdU incorporation assay relative to control; assay type: functional; conditions: read-out: GI
HeLa [9] = experiment: Cytotoxicity against human HeLa cells at 50 ug/ml after 72 hrs by BrdU incorporation assay relative to control; assay type: functional; conditions: read-out: GI
HeLa [10] = experiment: Cytotoxicity against human HeLa cells at 50 ug/ml after 48 hrs by BrdU incorporation assay relative to control; assay type: functional; conditions: read-out: GI
HeLa [11] = experiment: Cytotoxicity against human HeLa cells at 50 ug/ml after 24 hrs by BrdU incorporation assay relative to control; assay type: functional; conditions: read-out: GI
[12] = Cytotoxicity against human MM1S cells at 50 ug/ml after 72 hrs by BrdU incorporation assay relative to control; assay type: functional; conditions: MM1.S, read-out: GI
[13] = Cytotoxicity against human MM1S cells at 50 ug/ml after 48 hrs by BrdU incorporation assay relative to control; assay type: functional; conditions: MM1.S, read-out: GI
[14] = Cytotoxicity against human MM1S cells at 50 ug/ml after 24 hrs by BrdU incorporation assay relative to control; assay type: functional; conditions: MM1.S, read-out: GI
[15] = Cytotoxicity against human MM1R cells at 50 ug/ml after 72 hrs by BrdU incorporation assay relative to control; assay type: functional; conditions: MM.1R, read-out: GI
[16] = Cytotoxicity against human MM1R cells at 50 ug/ml after 48 hrs by BrdU incorporation assay relative to control; assay type: functional; conditions: MM.1R, read-out: GI
[17] = Cytotoxicity against human MM1R cells at 50 ug/ml after 24 hrs by BrdU incorporation assay relative to control; assay type: functional; conditions: MM.1R, read-out: GI
[18] = Cytotoxicity against human HSF cells at 50 ug/ml after 72 hrs by BrdU incorporation assay relative to control; assay type: cell-based; conditions: read-out: GI
[19] = Cytotoxicity against human HSF cells at 50 ug/ml after 48 hrs by BrdU incorporation assay relative to control; assay type: cell-based; conditions: read-out: GI
[20] = Cytotoxicity against human HSF cells at 50 ug/ml after 24 hrs by BrdU incorporation assay relative to control; assay type: cell-based; conditions: read-out: GI
[21] = Toxicity in ip dosed albino-Swiss mouse; assay type: organism-based; conditions: in vivo
[22] = Selectivity ratio for human RPMI8226 cells over human HSF cells; assay type: ADME, cell-based, RPMI-8226; conditions: RPMI8226 cells versus HSF cells

SMILES: COc1ccccc1N1CCn2c1nnc(-c1ccco1)c2=O
- selectivity ratio at 72 h [1]: 14
- selectivity ratio at 72 h [2]: 16

SMILES: O=c1c(-c2ccco2)nnc2n1CCN2c1ccccc1Cl
- selectivity ratio at 72 h [2]: 5
- selectivity ratio at 48 h [3]: 4
- selectivity ratio at 24 h [4]: 8

SMILES: O=c1c(-c2ccco2)nnc2n1CCN2c1c(Cl)cccc1Cl
- selectivity ratio at 72 h [2]: > 6
- selectivity ratio at 48 h [3]: > 5
- selectivity ratio at 24 h [4]: 8

SMILES: CCOC(=O)Cc1nnc2n(c1=O)CCN2c1ccc(Cl)cc1
- Activity [5]: tde
- inhibition of growth at 50 µg/mL (T47D [6]): 50%
- inhibition of growth at 50 µg/mL (T47D [7]): 50%
- inhibition of growth at 50 µg/mL (T47D [8]): 50%
- inhibition of growth at 50 µg/mL (HeLa [9]): 40%
- inhibition of growth at 50 µg/mL (HeLa [10]): 30%
- inhibition of growth at 50 µg/mL (HeLa [11]): 20%
- inhibition of growth at 50 µg/mL [12]: 90%
- inhibition of growth at 50 µg/mL [13]: 75%
- inhibition of growth at 50 µg/mL [14]: 45%
- inhibition of growth at 50 µg/mL [15]: 90%
- inhibition of growth at 50 µg/mL [16]: 85%
- inhibition of growth at 50 µg/mL [17]: 80%
- inhibition at 72 h, 50 ug/ml [18]: 80%
- inhibition at 48 h, 50 ug/ml [19]: 75%
- inhibition at 24 h, 50 ug/ml [20]: 50%

SMILES: COc1ccc(N2CCn3c2nnc(-c2ccccc2)c3=O)cc1
- LD50 [21]: > 2000 mg/kg
- selectivity ratio [22]: 1.7
